Reference: paper PMC6595003, “Insights into real-time chemical processes in a calcium sensor protein-directed dynamic library” (Nature Communications, 2019)
“And” between values parts separate entries of the source, which are not always exact repeats. Identical values can stand only once. Blank lines part the entries; values can stand above or below the compound they belong to.

Key:
dNCS-1 [1] = target: T1, dNCS-1 (Drosophila melanogaster, UniProt Q9VWX8); assay: tr-NOESY, DOSY and 1H-NMR of DCL mixtures in the presence of dNCS-1; assay type: binding; details: 281 K, up to 15 days
T1 construct: made in house; host or cells: E. coli
T1 sequence (Q9VWX8 1-187): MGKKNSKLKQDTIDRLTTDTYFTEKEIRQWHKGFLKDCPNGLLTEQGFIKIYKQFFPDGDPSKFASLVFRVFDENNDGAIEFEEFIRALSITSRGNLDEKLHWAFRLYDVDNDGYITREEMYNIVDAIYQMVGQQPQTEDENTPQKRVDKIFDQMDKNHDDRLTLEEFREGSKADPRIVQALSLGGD
Protocol: Fig. 4 HPLC-MS and NMR studies of the full dynamic combinatorial library. a DCL chromatograms after 5 h in the absence and in the presence of dNCS-1. Conditions: aldehyde 1 (1.2 µL, 50 mM), 2a–2e (3.6 µL, 50 mM), catalyst (1 µL, 12 M), dNCS-1:1 [1:1], Tris buffer (20 mM, pH 7.4), 1 mM CaCl2, 0.5 M NaCl, 1 mM DTT, T = 4 °C, 2% DMSO. DCC experiments were carried out in triplicate. b 1D-^1H NMR spectrum (red) of the mixture and DOSY experiment (black) of the DCL in the presence of dNCS-1 (281 K, 600 MHz). c Tr-NOESY spectrum of the DCL mixture in the presence of dNCS-1 (mixing time 200 ms, 281 K, 600 MHz). Amplification of the region δ 7.2–8.0 ppm. […]. The new signals that reveal the formation of 3b (aromatic region) and 2c (aliphatic region) are marked with stars. ^1H-STD-NMR (blue) and off-resonance (red) NMR spectra of the mixture 2b + 3c + dNCS-1 (281 K, 600 MHz) after 15 days
DOSY-NMR and tr-NOESY-NMR experiments were also recorded to follow the exchange process.
The experiments were performed on the same samples and spectrometer, at 281 K. The tr-NOESY mixing time was fixed at 200 ms. The DOSY experiments were acquired with 16 gradient increments to a final intensity decay of 90%.

dNCS-1 [2] = target: T1, dNCS-1; assay: Tryptophan emission fluorescence of dNCS-1 at increasing ligand concentrations (apparent Kd); assay type: binding
Protocol: Fluorescence-based experiments with 3a–3e were carried out to estimate their affinity to dNCS-1.
Mean ± SD from three independent experiments. The curves represent the least squares fitting of the experimental data to a 1:1 stoichiometry. To properly compare the different curves, intensities were normalized and represented. […] Input represents 1/10 cell lysates before IP. Quantifications of each lane from four experiments are shown below the blots. Bars represent percentage of NCS-1/ Ric8a binding (mean ± SD) normalized to DMSO. […] Mean ± SD from three independent experiments. […] Then, the percentage of picnotic bodies over the total nuclei was analyzed. Mean ± SD from three independent experiments. Paired two-tailed Student’s test ***P˂0.001; **P < 0.01; *P < 0.05. Source data are provided as a Source Data file. IP immunoprecipitation, WB western blot […]
the length of the pass light (L) is 1cm (see Supplementary Table 3 and Supplementary […]
Fluorescence emission experiments. Tryptophan emission fluorescence of dNCS-1 […]
affinity and calculate the apparent dissociation constant, Kd. Fluorescence measurements were performed by Jobin Yvon Floromax4 spectrofluorimeter equipped […]
5% DMSO at 5 °C. The excitation wavelength was fixed at 295 nm, and the emission spectra range were collected over 300-400 nm.
Then, three independent experiments were performed
Fluorescence intensities were normalized and represented as (I0 − I)/I 0. I stands for the observed fluorescence emission at 345 nm (fluorescence maximum), and I0 is the observed fluorescence emission of the protein itself without any small molecule. The apparent dissociation constant was obtained using a least squares algorithm to fit the experimental data to a 1:1 stoichiometry model.6 The fitting was performed with KaleidaGraph Data Analysis Program. […]
Protein expression and purification. Drosophila and human NCS-1 were over-expressed in E. coli and subsequently purified to homogeneity as previously described.9

dNCS-1 [3] = target: T1, dNCS-1; assay: Protein-directed DCL, HPLC-MS relative peak area with and without dNCS-1
Protocol: The reversibility of the DCL was evident, since an identical equilibrium distribution to that shown in Fig. 4a was obtained when two different starting points were employed. The observed degree of amplification was 3b > 3e ≥ 3d > 3a. The precise composition of the DCL (with and without dNCS-1), was assessed by measuring the relative peak area (RPA). Indeed, the normalized change of RPA was used to quantify the protein influence in the final outcome (Supplementary Figs. 9, 10 and Supplementary Tables 1, 2 and 3)[28]. […] Note that compounds 3a–3e can exist as E/Z isomers of the C = N bond. […].
Aldehyde 1 (1.2 μL, 50 mM, DMSO), the five acylhydrazides 2a–2e (5 × 3.6 μL, 50 mM, DMSO), p-anisidine (1 μL, 12 M, DMSO) and buffer 20 mM Tris, 0.5 M NaCl and 1 mM CaCl2, 1 mM DTT at pH 7.4 (750 μL) in 3.3 % DMSO. The mixture was stabilized in 5 h at 4 °C. HPLC analysis was performed.
Aldehyde 1 (1.2 μL, 50 mM, DMSO), the five acylhydrazides 2a–2e (5 × 3.6 μL, 50 mM, DMSO), p-anisidine (1 μL, 12 mM, DMSO) and dNCS-1 in buffer 20 mM Tris, 0.5 M NaCl and 1 mM CaCl2, 1 mM DTT at pH 7.4 (66.7 μM, 750 μL, 1 eq.). The experiment is in 3.3% DMSO. The mixture was stabilized for 5 h at 4 °C. Then, dNCS-1 was removed by ultrafiltration using an Amicon Ultra filter (0.5–10 KDa). HPLC analysis was performed and the traces were compared with the blank composition.
Supplementary Figure 9. Relative Peak Area of the DCL with and without dNCS1. Aldehyde
1 (1.2 µL, 50 mM), 2a-e (3.6 µL, 50 mM), catalyst (1 µL, 12 M), dNCS-1:1 [1:1], tris buffer (20
mM, pH 7.4), 1 mM CaCl2, 0.5 M NaCl, 1 mM DTT, T = 4 °C, 2% DM SO. Mean relative peak
area (RPA) of each acylhydrazone of the library in the absence (blank) and presence of dNCS-1.
Error bars indicate standard deviation (SD) over three experiments. The calculation is set by the
sum of all peak areas to 100% and assigning each peak its percentage. Source data are provided
R P A N o rm aliz ed V a riation
Supplementary Figure 10. RPA normalized of variation of DCL with and without dNCS1.
Aldehyde 1 (1.2 µL, 50 mM), 2a-e (3.6 µL, 50 mM), catalyst (1 µL, 12 M), dNCS-1:1 [1:1], tris
buffer (20 mM, pH 7.4), 1 mM CaCl2, 0.5 M NaCl, 1 mM DTT, T = 4 °C, 2% DM SO. Error
bars indicate SD over three experiments. Source data are provided as a Source Data file.

[4] = tested on: Cortical neurons from E14 wild-type mice; assay: Toxicity in primary cultured neurons (percentage of picnotic bodies); assay type: cell-based; details: C57BL6J, mouse, 24 h
Excerpt: (§1) Mean ± SD from three independent experiments. The curves represent the least squares fitting of the experimental data to a 1:1 stoichiometry. To properly compare the different curves, intensities were normalized and represented. […] Input represents 1/10 cell lysates before IP. Quantifications of each lane from four experiments are shown below the blots. Bars represent percentage of NCS-1/ Ric8a binding (mean ± SD) normalized to DMSO. […] CNS + (green) for Pe > 4.47 × 10^−6 cm s^−1, CNS- (red) for compounds with Pe < 4.47 × 10^–6 cm s^−1. […] Mean ± SD from three independent experiments. […] Then, the percentage of picnotic bodies over the total nuclei was analyzed. Mean ± SD from three independent experiments. Paired two-tailed Student’s test ***P˂0.001; **P < 0.01; *P < 0.05. Source data are provided as a Source Data file. IP immunoprecipitation, WB western blot
Finally, cell toxicity in neurons was quantified as percentage of picnotic bodies for 3b (Fig. 6d).
Cortical neurons were obtained from E14 wt mice (C57BL6J). Mice were maintained in accordance to European law and following Hospital Ramón y Cajal´s animal guidelines. […] Three independent experiments counting cells from three different wells per concentration were performed. To analyzed cell death, neurons were fixed and stained with DAPI.

NCS-1/Ric8a interaction [5] = tested on: NCS-1/Ric8a interaction; design: method as in PMID 28119500, PMID 29966094; details: cited from earlier work
NCS-1/Ric8a interaction [6] = target: T2, NCS-1/Ric8a interaction (Homo sapiens, UniProt P62166); assay: Co-IP binding assay of human NCS-1 and V5-tagged Ric8a in transfected HEK cells; assay type: cell-based; details: compound 20 μM
T2 construct: expressed in transfected cells; host or cells: HEK293 cells (Dharmacon)
Excerpt: as §1
Binding assays with NCS-1 and Ric8a in co-transfected HEK cells were carried out to study the modulation effect of compounds 3a, 3b and 3d in the protein-protein interaction (Fig. 6b).
hNCS-1 and V5-tagged hRic8a were co-transfected into HEK293 cells (Dharmacon) using Lipofectamine 2000 (Invitrogen)[13]. After 24 h, after transfection, DMSO alone or the compounds dissolved in DMSO (20 μM) were added to the culture cells. Then, 24 h after transfection, cells were lysed with Lysis buffer (150 mM NaCl, 1.0% Nonidet P-40, 50 mM Tris, pH 8.0) in the presence of the compounds (20 μM), whose concentration was maintained throughout the immunoprecipitation assay. Precleared lysates were incubated overnight (12 h) at 4 °C with mouse anti-NCS-1 (1:500; Cell Signaling). Samples were subsequently incubated overnight with Protein-G-Sepharose (Sigma-Aldrich), washed and eluted from the Sepharose. Samples were analyzed by Western blot following standard procedures. […] Original representative western blots are found in Source Data file.

[7] = Ca2+ loaded dNCS-1 0.8 µM, pH 7.9, 5% DMSO, 5 °C, fit to 1:1 stoichiometry, three independent experiments

T2 sequence (P62166 2-190 limits assumed): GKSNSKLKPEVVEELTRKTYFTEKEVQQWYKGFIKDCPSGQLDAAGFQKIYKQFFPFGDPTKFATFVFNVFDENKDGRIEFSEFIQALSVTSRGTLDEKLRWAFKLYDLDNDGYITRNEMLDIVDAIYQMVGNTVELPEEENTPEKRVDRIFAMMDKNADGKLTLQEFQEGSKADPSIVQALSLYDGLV

apparent Kd (dNCS-1 [2]; [7]): did not show affinity | degree of amplification in the DCL in presence of dNCS-1 (dNCS-1 [3]; after 5 h, 4 °C, pH 7.4, p-anisidine catalyst): clearly reduced in presence of dNCS-1 | RPA, Blank DCL (dNCS-1 [3]; as fraction of total area): 0.09603 | RPA, Templated DCL (dNCS-1 [3]; as fraction of total area, with dNCS-1): 0 | RPA (%) with protein (templated DCL) (dNCS-1 [3]; relative peak area in presence of dNCS-1): 0% | RPA (%) without protein (blank DCL) (dNCS-1 [3]; relative peak area, sum of all peak areas set to 100%): 9.6% and 9.603% | RPA (%), Blank DCL (dNCS-1 [3]; sheet Supplementary Figure 10): 9.6% | RPA (%), Templated DCL (dNCS-1 [3]; sheet Supplementary Figure 10, with dNCS-1): 0% | Normalized Change of RPA (dNCS-1 [3]; with vs without dNCS-1): -1
SMILES: COCCC(=O)N/N=C/c1ccc([N+](=O)[O-])c(O)c1 [3c]
binding to dNCS-1 (1H-NMR evolution of the mixture 3c + 2b with dNCS-1) (dNCS-1 [1]): extremely weak or non-binder

Kd (dNCS-1 [2]; [7]): 12 ± 2 µM | Normalized Fluorescence I0-I/I0 (dNCS-1 [2]; ligand 3.2 μM): 0.266 | Normalized Fluorescence I0-I/I0 (dNCS-1 [2]; ligand 6.4 μM): 0.263 | Normalized Fluorescence I0-I/I0 (dNCS-1 [2]; ligand 8 μM): 0.448 | Normalized Fluorescence I0-I/I0 (dNCS-1 [2]; ligand 16 μM): 0.643 | Normalized Fluorescence I0-I/I0 (dNCS-1 [2]; ligand 24 μM): 0.730 | Normalized Fluorescence I0-I/I0 (dNCS-1 [2]; ligand 32 μM): 0.794 | modulation of the NCS-1/Ric8a binding (NCS-1/Ric8a interaction [6]; compared with DMSO (basal binding 100%)): reduced binding | Densitometry of V5-Ric8a co-immunoprecipitated with NCS-1, exp3 (NCS-1/Ric8a interaction [6]; DMSO in the same experiment 4613104): 3547054 | Densitometry of V5-Ric8a co-immunoprecipitated with NCS-1, exp2 (NCS-1/Ric8a interaction [6]; DMSO in the same experiment 9508518): 4354560 | Densitometry of V5-Ric8a co-immunoprecipitated with NCS-1, exp1 (NCS-1/Ric8a interaction [6]; DMSO in the same experiment 19247016): 3883518
SMILES: CN(C)CCCN1c2ccccc2Sc2ccc(Cl)cc21 [CPZ, Chlorpromazine, reference compound]
percentage of picnotic bodies over total nuclei, average ([4]; 0.2 μM): 11.1667% | percentage of picnotic bodies, % exp 2 ([4]; 0.2 μM): 9.6% | percentage of picnotic bodies, % exp 3 ([4]; 0.2 μM): 11.1% | percentage of picnotic bodies, % exp.1 ([4]; 0.2 μM): 12.8% | percentage of picnotic bodies over total nuclei, average ([4]; 2 μM): 15.1% | percentage of picnotic bodies, % exp 2 ([4]; 2 μM): 11% | percentage of picnotic bodies, % exp 3 ([4]; 2 μM): 19.3% | percentage of picnotic bodies, % exp.1 ([4]; 2 μM): 15% | percentage of picnotic bodies over total nuclei, average ([4]; 10 μM): 22.2333% | percentage of picnotic bodies, % exp 2 ([4]; 10 μM): 25.7% | percentage of picnotic bodies, % exp 3 ([4]; 10 μM): 15% | percentage of picnotic bodies, % exp.1 ([4]; 10 μM): 26% | percentage of picnotic bodies over total nuclei, average ([4]; 20 μM): 38.7667% | percentage of picnotic bodies, % exp 2 ([4]; 20 μM): 29.3% | percentage of picnotic bodies, % exp 3 ([4]; 20 μM): 39% | percentage of picnotic bodies, % exp.1 ([4]; 20 μM): 48% | reported inhibition of the NCS-1/Ric8a interaction (NCS-1/Ric8a interaction [5]): mild inhibitor and mild
